Results taken from US5733913A, “6-Aryl pyrido[2,3-d] pyrimidines and naphthyridines for inhibiting protein tyrosine kinase mediated cellular proliferation” (priority 1995, dated 1998).

What was measured:
Format in all cases: biochemical
[1] = target: T1, Human EGF receptor tyrosine kinase (Homo sapiens, UniProt P00533); assay: EGF receptor tyrosine kinase assay; conditions: read-out: Inhibition of Protein Tyrosine Kinases, EGF, IC50
T1 construct: isolated from A431 epidermoid carcinoma cells; endogenous in cells; host or cells: A431 epidermoid carcinoma cells (Triton lysate, wheat germ agglutinin eluate)
T1 sequence (P00533 25-1210): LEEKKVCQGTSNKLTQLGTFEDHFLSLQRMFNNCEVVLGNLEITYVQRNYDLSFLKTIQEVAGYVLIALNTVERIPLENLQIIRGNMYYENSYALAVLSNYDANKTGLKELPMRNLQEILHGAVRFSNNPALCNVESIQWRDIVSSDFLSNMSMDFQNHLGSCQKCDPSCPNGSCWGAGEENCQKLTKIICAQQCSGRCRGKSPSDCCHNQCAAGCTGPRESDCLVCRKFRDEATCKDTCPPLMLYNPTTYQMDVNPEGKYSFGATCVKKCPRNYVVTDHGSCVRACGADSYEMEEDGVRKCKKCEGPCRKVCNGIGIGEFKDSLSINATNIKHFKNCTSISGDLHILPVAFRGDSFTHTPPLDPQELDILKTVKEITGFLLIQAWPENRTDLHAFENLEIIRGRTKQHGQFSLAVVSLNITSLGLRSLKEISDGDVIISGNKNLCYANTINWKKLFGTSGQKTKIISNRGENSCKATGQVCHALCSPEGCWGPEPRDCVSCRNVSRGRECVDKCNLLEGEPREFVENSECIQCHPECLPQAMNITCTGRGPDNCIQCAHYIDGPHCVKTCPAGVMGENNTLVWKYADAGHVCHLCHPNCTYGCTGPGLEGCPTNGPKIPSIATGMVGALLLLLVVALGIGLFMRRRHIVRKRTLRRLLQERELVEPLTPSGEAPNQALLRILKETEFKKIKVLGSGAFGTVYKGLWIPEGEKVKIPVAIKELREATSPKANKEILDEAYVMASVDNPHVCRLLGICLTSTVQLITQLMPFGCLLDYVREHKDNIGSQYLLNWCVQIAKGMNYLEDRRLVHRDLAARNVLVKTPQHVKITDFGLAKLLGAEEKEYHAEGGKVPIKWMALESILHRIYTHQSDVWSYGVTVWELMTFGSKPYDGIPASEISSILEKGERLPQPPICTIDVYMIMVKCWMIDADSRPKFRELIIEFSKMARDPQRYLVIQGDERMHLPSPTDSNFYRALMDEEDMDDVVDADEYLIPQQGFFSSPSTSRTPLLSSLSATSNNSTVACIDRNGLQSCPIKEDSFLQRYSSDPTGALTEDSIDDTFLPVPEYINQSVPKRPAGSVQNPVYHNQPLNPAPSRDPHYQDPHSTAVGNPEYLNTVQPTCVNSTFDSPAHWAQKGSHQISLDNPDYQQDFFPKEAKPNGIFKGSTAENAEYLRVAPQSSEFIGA
Procedure: Purification of Epidermal Growth Factor Receptor Tyrosine Kinase
Human EGF receptor tyrosine kinase was isolated from A431 epidermoid carcinoma cells by the following methods. Cells were grown in roller bottles in 50% Delbuco's Modified Eagle and 50% HAM F-12 nutrient media (Gibco) containing 10% fetal calf serum. Approximately 10^9 cells were lysed in two volumes of buffer containing 20 mM 2-(4N-[2-hydroxyethyl]piperazin-1-yl)ethanesulfonic acid, pH 7.4, 5 mM ethylene glycol bis(2-aminoethyl ether)N,N,N',N'-tetraacetic acid, 1% Triton X-100, 10% glycerol, 0.1 mM sodium orthovanadate, 5 mM sodium fluoride, 4 mM pyrophosphate, 4 mM benzamide, 1 mM dithiothreitol, 80 μg/mL aprotinin, 40 μg/mL leupeptin, and 1 mM phenylmethylsulfonyl fluoride. After centrifugation at 25,000×g for 10 minutes, the supernatant was equilibrated for 2 hours at 4° C. with 10 mL of wheat germ agglutinin sepharose that was previously equilibrated with 50 mM Hepes, 10% glycerol, 0.1% Triton X-100 and 150 mM NaCl, pH 7.5, (equilibration buffer). Contaminating proteins were washed from the resin with 1M NaCl in equilibration buffer, and the enzyme was eluted with 0.5M N-acetyl-1-D-glucosamine in equilibration buffer.
Determination of IC50 Values
The reaction was terminated by the addition of 2 mL of 75 mM phosphoric acid and passed through a 2.5-cm phosphocellulose filter disc to bind the peptide. The filter was washed five times with 75 mM phosphoric acid and placed in a vial along with 5 mL of scintillation fluid (Ready gel Beckman).

[2] = target: T2, mouse PDGF-β receptor tyrosine kinase (Mus musculus, UniProt P05622); assay: PDGF receptor tyrosine kinase assay; conditions: read-out: Inhibition of Protein Tyrosine Kinases, PDGF, IC50
T2 construct: a fragment of DNA that codes for the intracellular tyrosine kinase domain; made in house; host or cells: Sf9 insect cells (baculovirus), cell lysate
T2 sequence (P05622 599-961 limits assumed): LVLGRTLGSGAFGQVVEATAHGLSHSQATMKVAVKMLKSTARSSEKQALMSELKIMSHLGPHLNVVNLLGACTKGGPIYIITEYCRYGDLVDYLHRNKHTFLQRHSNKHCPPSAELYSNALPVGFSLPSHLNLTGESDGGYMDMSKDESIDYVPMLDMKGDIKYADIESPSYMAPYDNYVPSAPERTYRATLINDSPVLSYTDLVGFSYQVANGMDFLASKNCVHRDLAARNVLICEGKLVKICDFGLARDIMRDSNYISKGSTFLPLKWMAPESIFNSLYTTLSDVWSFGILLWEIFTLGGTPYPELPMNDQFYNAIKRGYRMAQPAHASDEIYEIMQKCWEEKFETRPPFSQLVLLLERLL
In short: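 Intracellular kinase domains expressed in baculovirus-infected SF9 cells; crude lysate used as enzyme. Inhibitor preincubated 10 min at 25 °C with lysate in pH 7.0 Hepes buffer with 10 mM MnCl2 and poly(Glu-Tyr) 4:1, then γ-32P-ATP (50 μM ATP) added for 10 min at 25 °C. TCA-precipitated 32P on filters counted, no-enzyme background subtracted.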

C-src kinase = target: T3, C-src kinase (Homo sapiens, UniProt P12931); assay: C-src kinase assay; conditions: read-out: Inhibition of Protein Tyrosine Kinases, C-src, IC50
T3 construct: made in house; host or cells: baculovirus-infected insect cells
T3 sequence (P12931 whole entry): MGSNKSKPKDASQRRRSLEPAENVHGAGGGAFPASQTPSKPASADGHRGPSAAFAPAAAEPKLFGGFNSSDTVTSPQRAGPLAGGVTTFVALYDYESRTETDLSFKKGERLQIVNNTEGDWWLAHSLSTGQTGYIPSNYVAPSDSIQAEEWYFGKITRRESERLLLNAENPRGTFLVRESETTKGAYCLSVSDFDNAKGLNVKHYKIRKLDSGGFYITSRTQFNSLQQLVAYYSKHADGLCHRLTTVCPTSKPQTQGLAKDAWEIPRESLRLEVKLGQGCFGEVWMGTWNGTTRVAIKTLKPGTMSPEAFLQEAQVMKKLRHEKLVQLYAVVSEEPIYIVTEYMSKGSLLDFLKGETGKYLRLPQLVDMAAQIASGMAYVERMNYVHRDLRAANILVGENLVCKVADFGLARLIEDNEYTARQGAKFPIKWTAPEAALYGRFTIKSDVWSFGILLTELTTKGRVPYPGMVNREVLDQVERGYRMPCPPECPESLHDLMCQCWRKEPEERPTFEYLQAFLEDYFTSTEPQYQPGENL
In short: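 Baculovirus-expressed c-src immunopurified on antibody-coated latex beads, assayed in 40 mM Tris pH 7.5, 5 mM MgCl2 with poly GluTyr substrate and 5 μM ATP plus 32P-ATP. Reaction 10 min at room temperature, TCA-quenched, filtered; incorporated label counted by scintillation.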

Molecule `Cc1ccccc1-c1cc2cnc(N)nc2nc1N` [Example 90, 6-o-Tolyl-pyrido[2,3-d]pyrimidine-2,7-diamine] has an IC50 [1] of 22.8 µM, an IC50 [2] of 8.01 µM and an IC50 (C-src kinase) of 1.63 µM.
